# Laboratory results published in article PMC11882969 (Nature Communications, 2025).
# Values joined by “and” are separate entries in the source; they are usually repeats but may differ in a detail not shown here. Identical values can stand only once. Like-named read-outs stand apart in the source and are kept apart here.
# Legend:
# hCB1 = hCB1 (Homo sapiens, UniProt P21554); assay: bioSensAll ebBRET signaling profiling, hCB1; format: cell-based; design: host or cells: HEK293SL cells, transient PEI transfection; details: for GoB hCB1 / Gi1 hCB1: single replicate values, FigS6a; for Emax [95% CI]: normalized to CP-55,940; for EC50: read-out: EC50 [95% CI]
# CB1 (rCB1) [1] = molecular target: T1, CB1 (rCB1) (Rattus norvegicus, UniProt P20272); assay: Single-point radioligand displacement screen; format: binding; details: 10 µM, 1 µM or 300 nM by cell colour (not visible)
# CB1 (rCB1) [2] = molecular target: T1, CB1 (rCB1); assay: Radioligand competition binding, [3H]-CP-55,940, rat brain membranes
# T1 sequence (P20272 whole entry): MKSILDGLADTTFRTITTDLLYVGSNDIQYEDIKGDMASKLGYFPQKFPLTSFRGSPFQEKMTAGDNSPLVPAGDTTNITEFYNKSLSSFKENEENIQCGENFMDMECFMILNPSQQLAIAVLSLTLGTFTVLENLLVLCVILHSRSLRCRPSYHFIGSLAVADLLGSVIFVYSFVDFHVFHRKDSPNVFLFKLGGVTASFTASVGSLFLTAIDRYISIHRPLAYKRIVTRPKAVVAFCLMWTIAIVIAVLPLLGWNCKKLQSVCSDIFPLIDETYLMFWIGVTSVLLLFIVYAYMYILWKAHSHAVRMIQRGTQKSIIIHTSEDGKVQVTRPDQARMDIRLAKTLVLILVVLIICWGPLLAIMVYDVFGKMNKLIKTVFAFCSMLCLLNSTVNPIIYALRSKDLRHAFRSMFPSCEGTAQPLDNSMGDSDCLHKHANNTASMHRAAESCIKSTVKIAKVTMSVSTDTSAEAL
# Chain of hCB1 (P21554 whole entry): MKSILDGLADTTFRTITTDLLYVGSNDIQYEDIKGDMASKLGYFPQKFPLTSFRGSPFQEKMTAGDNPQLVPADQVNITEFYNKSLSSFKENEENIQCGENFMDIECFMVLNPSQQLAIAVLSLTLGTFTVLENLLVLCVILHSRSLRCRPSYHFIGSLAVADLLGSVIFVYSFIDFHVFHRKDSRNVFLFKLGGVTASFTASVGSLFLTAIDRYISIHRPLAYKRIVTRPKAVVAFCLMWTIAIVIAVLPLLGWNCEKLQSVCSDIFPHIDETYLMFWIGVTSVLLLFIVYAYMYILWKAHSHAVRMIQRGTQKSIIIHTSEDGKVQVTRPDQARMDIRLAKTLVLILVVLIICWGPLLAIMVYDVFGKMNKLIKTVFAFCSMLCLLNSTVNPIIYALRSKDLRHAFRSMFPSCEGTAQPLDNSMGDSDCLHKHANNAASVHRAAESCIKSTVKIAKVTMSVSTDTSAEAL
structure (smiles),measurement,setting,value
COC(=O)[C@@H]1[C@@H]2CCC[C@@H]2CN1C(=O)c1cc(C)n(-c2cccc(Cl)c2)n1 (racemic) [‘10010],GoB hCB1,hCB1; Log [Compound] (M) -4.22186,69.5491
same,Gi1 hCB1,hCB1; Log [Compound] (M) -4.63927,67.922
same,GoB hCB1,hCB1; Log [Compound] (M) -4.63927,64.6397
same,Gi1 hCB1,hCB1; Log [Compound] (M) -5.05788,66.8428
same,GoB hCB1,hCB1; Log [Compound] (M) -5.05788,63.4708
same,Gi1 hCB1,hCB1; Log [Compound] (M) -5.47381,60.337
same,GoB hCB1,hCB1; Log [Compound] (M) -5.47381,61.9062
same,Gi1 hCB1,hCB1; Log [Compound] (M) -5.89285,45.2596
same,GoB hCB1,hCB1; Log [Compound] (M) -5.89285,36.262
same,Gi1 hCB1,hCB1; Log [Compound] (M) -6.31878,29.1955
same,GoB hCB1,hCB1; Log [Compound] (M) -6.31878,27.8098
same,Gi1 hCB1,hCB1; Log [Compound] (M) -6.72585,16.0606
same,GoB hCB1,hCB1; Log [Compound] (M) -6.72585,11.4989
same,Gi1 hCB1,hCB1; Log [Compound] (M) -7.14267,6.117
same,GoB hCB1,hCB1; Log [Compound] (M) -7.14267,3.514
same,Gi1 hCB1,hCB1; Log [Compound] (M) -7.55284,3.804
same,GoB hCB1,hCB1; Log [Compound] (M) -7.55284,2.9568
same,Gi1 hCB1,hCB1; Log [Compound] (M) -8,3.373
same,GoB hCB1,hCB1; Log [Compound] (M) -8,0.9427
same,Gi1 hCB1,hCB1; Log [Compound] (M) -8.22186,2.679
same,GoB hCB1,hCB1; Log [Compound] (M) -8.22186,-4.812
same,Gi1 hCB1,hCB1; Log [Compound] (M) -8.39794,2.664
same,GoB hCB1,hCB1; Log [Compound] (M) -8.39794,-1.197
same,Gi1 hCB1,hCB1; Log [Compound] (M) -8.68787,1.0911
same,GoB hCB1,hCB1; Log [Compound] (M) -8.68787,-4.812
same,Gi1 hCB1,hCB1; Log [Compound] (M) -9.15521,1.8
same,GoB hCB1,hCB1; Log [Compound] (M) -9.15521,-5.028
same,Gi1 hCB1,hCB1; Log [Compound] (M) -9.61989,0.8444
same,GoB hCB1,hCB1; Log [Compound] (M) -9.61989,-4.38
same,Gi1 hCB1,hCB1; Log [Compound] (M) -10.0969,1.662
same,GoB hCB1,hCB1; Log [Compound] (M) -10.0969,-4.057
same,Gi1 hCB1,hCB1; Log [Compound] (M) -10.5529,2.648
same,GoB hCB1,hCB1; Log [Compound] (M) -10.5529,1.212
same,Gi1 hCB1,hCB1; Log [Compound] (M) -11.0177,0.9524
same,GoB hCB1,hCB1; Log [Compound] (M) -11.0177,-2.384
same,Gi1 hCB1,hCB1; Log [Compound] (M) -11.4949,2.417
same,GoB hCB1,hCB1; Log [Compound] (M) -11.4949,-4.326
same,Gi1 hCB1,hCB1; Log [Compound] (M) -11.9208,1.261
same,GoB hCB1,hCB1; Log [Compound] (M) -11.9208,-0.06441
same,Gi1 hCB1,hCB1; Log [Compound] (M) -12.3979,1.908
same,GoB hCB1,hCB1; Log [Compound] (M) -12.3979,2.4173
same,Gi1 hCB1,hCB1; Log [Compound] (M) -12.8861,1.322
same,GoB hCB1,hCB1; Log [Compound] (M) -12.8861,1.59
same,Gi1 hCB1,hCB1; Log [Compound] (M) -13,2.232 and 1.538
same,GoB hCB1,hCB1; Log [Compound] (M) -13,0.8707 and 1.266
same,pEC50 [95% CI],hCB1; hCB1 Gi1,6.1 [6.0 – 6.1]
same,Emax [95% CI],hCB1; hCB1 Gi1,74 [70 – 74]
same,pEC50 [95% CI],hCB1; hCB1 GoB,6.1 [6.0 – 6.2]
same,Emax [95% CI],hCB1; hCB1 GoB,71 [67 – 75]
same,pEC50 [95% CI],hCB1; hCB1 Gz,5.9 [5.4 – 6.3]
same,Emax [95% CI],hCB1; hCB1 Gz,144 [113 –175]
same,EC50,hCB1; hCB1 Gi1,814 nM
same,EC50,hCB1; hCB1 GoB,801 nM
same,EC50,hCB1; hCB1 Gz,1400 nM
same,"% 1H-CP-55,940 displacement (mean) from single point screen",CB1 (rCB1) [1],33.86%
same,pKi [95% CI],CB1 (rCB1) [2]; rCB1,5.9 [5.8 – 6.0]
same,Ki,"CB1 (rCB1) [2]; read-out: Ki [95% CI], rCB1, [3H]-CP-55,940",1200 nM
